Results on one compound are retold here after patent publication US20090137565A1, “Method for treatment of movement disorders” (The Trustees of Columbia University in the City of New York, priority 2004, published 2009).

For data set [1] the following is noted: metabolized to carbon dioxide and water; cited from earlier work.
Data set [2] concerns medication-refractory, ethanol-responsive ET. In words: Twenty-patient open-label trial of sodium oxybate, blinded WHIGET (ET patients). It is filed as in vivo, human. Particulars: for Kinetic tremor score: dose 0 score 15.4; for Postural tremor score: dose 0 score 2.4. An excerpt: Twenty patients age 18 or older were recruited from a clinical practice at the Movement Disorders Division of Columbia University Medical Center. Eligible patients with medication-refractory, ethanol-responsive myoclonus (6 PHM, 3 MD, 2 PME) or ET (9 patients) (Table 1) were offered enrollment from February 2004 to March 2005. The medical center's institutional review board approved the protocol, and written informed consent was obtained from all participants. All had myoclonus or ET that improved (by self-report) with ingestion of ethanol. All patients were medication-refractory, defined as obtaining inadequate benefit from best medical treatment or being unable to tolerate treatment. The dose and timing of other medications were kept constant before and during the trial.
Twelve men and 8 women enrolled. Results from patients #6, and #s 1, 2, 7, 12, and 13 were reported previously. Frucht, S. J., et al. Mov Disord 20:745-51 (2005); Frucht, S. J., et al. Mov Disord 20:1330-7 (2005). Mean age/symptom duration was 43.9 yrs/12.3 yrs (myoclonus) and 71.2 yrs/26.7 yrs (ET). Patients with myoclonus were examined and videotaped at each visit using the Unified Myoclonus Rating Scale (UMRS), and patients with ET were examined and videotaped using the modified Washington Heights Inwood Genetic Essential Tremor Rating Scale (WHIGET; Appendix 1). Frucht, S. J., et al. Mov Disord 20:1330-7 (2005). After initial baseline examination and videotaping, patients took 1 gm of sodium oxybate by mouth (2 ml of the standard 0.5 gm/ml solution dissolved in 60 ml of water), and one hour later the videotaped examination was repeated. Patients were maintained on a dose of 1 gm T.I.D. (taken before meals) until their next office visit two weeks later, when the examination and videotaping were repeated one hour after receiving 1.5 gm of sodium oxybate. Subsequent visits and dose titrations at two-week intervals were repeated until the maximum dose was reached (3 gm T.I.D), patients were satisfied with the results of treatment, or until they developed side effects that they viewed as troublesome. Dosing for patients #1, 2, 6, 7, 12, and 13 was slightly different (1 gm BID, with dose increments of 2 gm to maximum dose of 4 gm BID), but office visits and videotaping protocol were otherwise identical.
The entire videotape segments and writing samples from each visit were copied and randomly ordered, and identifying features that might reveal trial order or drug dose were removed. A blinded movement disorder neurologist scored each videotape segment using the UMRS or the WHIGET. Sub-scores for each visit were calculated as described previously. Frucht, S. J., et al. Mov Disord 20:1330-7 (2005). Based on data from the first two ET cases, and assuming alpha=0.05, power=80%, and a 25% reduction in post-treatment tremor severity, we calculated that eight ET cases were required. A similar number of myoclonus patients would provide >80% power to detect a 25% reduction in the severity of post-treatment action myoclonus. Paired t tests were performed for scores pre- and post-treatment.

As to `O=C([O-])CCCO.[Na+]` [GHB, 4-hydroxybutanoic acid monosodium salt], the active metabolites result in data set [1] is “has no active metabolites”. For the same compound, the Kinetic tremor score in data set [2] (1 gm, p 0.011*) is 11.5 (0.011)*; in data set [2] (1.5 gm, p 0.006**) it was 8.8 (0.006)**; in data set [2] (2 gm, p 0.006**), 9.1 (0.006)**. In addition, the Postural tremor score is on record as 1.7 (0.029)* in data set [2] (1 gm, p 0.029*); 1.1 (0.001)** in data set [2] (1.5 gm, p 0.001**); 1.4 (0.006)** in data set [2] (2 gm, p 0.006**). Also, the “dose of maximal improvement” value in data set [2] (ET, postural and kinetic tremor scores) stood at 1.5 gm. In data set [2] (patient #15 (ET), after 1.5 gm), the “time at which improvement in action tremor during pouring was evident” value was found to be 45 min. For the same compound, in data set [2] (patient #15 (ET), after 1.5 gm), the “time at which improvement in action tremor during pouring was obvious” value stood at 60 min. Moreover, the “kinetic tremor during tasks (drawing, sipping water from spoon)” value in data set [2] (patient #17 (ET), FIG. 4) is listed as “Improvement in kinetic tremor during tasks was evident”.
